Source: patent US12343326B2, “Psychoactive medicines and their use for treating psychiatric and neurological conditions and disorders” (Transcend Therapeutics, Inc., priority 2021, dated 2025)

Key:
C57BL/6J mice [1] = assay: Mouse head-twitch response (HTR) test; type: in vivo; conditions: i.p., any dose tested, HTR measured for 10 minutes
Description: Head twitch response (HTR) was evaluated using C57BL/6J mice (ages 7-10 weeks), Mice were ear tagged at least three days after arrival to the animal facility and allowed to rest for at least three days before behavioral testing. Small magnets (SuperMagnetMan—N45 magnet 3 mm diameter, 0.5 mm thickness) were glued to ear tags (Stoelting—La Pias Aluminum Ear Tags) at least two days before mice were ear tagged. The experimental setup was adapted from Gonzales-Maeso (de la Fuente Revenga et al., 2019) and Kwan (Jefferson et al., 2022; Savalia et al., 2021), including experimental apparatus and MATLAB code for analysis.
Doses were randomly assigned, and age-matched controls were injected with vehicle and randomly interspersed with drug conditions. At least three animals per sex were used for each drug dose and condition. If animals were used in multiple HTR experiments, experimental sessions took place at least one week apart. Two animals were run at a time. Immediately after i.p. injection of psychedelic or entactogen drug, animals were placed in separate plastic boxes within a larger chamber (Home Depot—28 in. W×32 in. H×21.5 in. D), and HTR was measured for 10 minutes. A small lamp was placed in the back of the larger chamber, and a high-speed camera (Basler—Aca 1920-155 μm) was suspended from the ceiling to record video of the animals in the plastic boxes. […]

participants with PTSD = assay: IMPACT-1 Part A open-label study of methylone for PTSD; type: in vivo, human
Text: Brief Summary: This is a two-part study to assess methylone for the management of the symptoms of PTSD. Part A is an open-label, non-controlled assessment in up to 15 evaluable participants with PTSD to assess early safety and efficacy and to confirm procedures included in the blinded portion (Part B) of the study. After completion of Part A, enrollment for Part B will begin in up to 64 participants. Part B is identical to Part A with the exception of the inclusion of a placebo arm in Part B.
For each participant in Parts A and B, the study consists of: • Screening Period (Day −28 to Day −4): Informed consent, eligibility assessment, and enrolment of eligible participants. • Baseline/Preparatory Session (Day −3 to Day −1): Baseline assessments, confirmation of eligibility, and a preparatory psychoeducation session leading to enrolment confirmation. • Treatment Period (Day 1 to Day 24): Four weekly dose sessions, with associated remote sessions. The dose sessions last at least 8 hours, or until all effects (physical and psychological) have resolved (whichever is longer). Each dose session is followed by a safety phone call 1 day after dosing and efficacy assessments 2 days after dosing. Each dosing period is video recorded for quality and training purposes. The videos may be reviewed to ensure the Mentor is adhering to the Mentor training. • Follow-Up Period (Day 29 to Day 64): Follow-Up visits for safety and efficacy occur at 1, 2, 3 and 6 weeks post-final study drug administration. In addition, there are Mentor-Led Reflection Sessions 1, 2 and 3 weeks post-final study drug administration. Participants are contacted via telephone on Day 57 (±2 days) for Follow-Up. • Discontinuations: Participants who discontinue prematurely are asked to return for an extra visit to duplicate the 6-week end-of-study (EOS) visit.
Each dose was given as an initial dose, followed by a second dose 90 minutes later. During the dosing session, participants were accompanied by a trained Mentor who provided non-directive support. After the 4-week treatment period, participants attended follow-up visits at 1, 2, 3, and 6 weeks following the last dose. Safety was assessed via standard measures including adverse events. PTSD symptoms were assessed via Clinician-Administered PTSD Scale for DSM-5 (CAPS-5), depressive symptoms were assessed via Montgomery-Asberg Depression Rating Scale (MADRS). Anti-anxiety efficacy was evaluated using the Anxiety Sub-Scale of MADRS, namely, questions (Items 3, 4, 5, 6) that address four anxiety items (inner tension, reduced sleep, reduced appetite, concentration difficulties) Changes from baseline were analyzed using a paired t-test p-values.
Methods: The IMPACT-1 study is a multi-center, two-part clinical trial. Part A has completed and was an open-label evaluation involving 14 participants with PTSD. Eligible participants are adults with severe PTSD (CAPS-5≥35) who had failed at least 1 prior treatment (pharmacotherapy and/or psychotherapy) for PTSD. […] Throughout each dosing session, participants were provided non-directive psychological support by a trained mental health practitioner. Following the 4-week treatment period, participants were followed for an additional 6 weeks to evaluate the durability of the therapeutic effect. PTSD symptom improvement was evaluated on the CAPS-5. Functioning was assessed via the 3 domains (school/work, family life, social life) of the Sheehan Disability Scale (SDS). Global improvement was measured by the CGI-I. Safety was assessed by monitoring adverse events, vital signs, and C-SSRS.
Following the 4-week treatment period, participants were followed for an additional 6 weeks to evaluate the durability of the therapeutic effect. […]

C57BL/6J mice [2] = assay: Cued fear conditioning, extinction training and recall (Example 35); type: in vivo, mouse
Description: Methods: Cued fear conditioning was performed in C57BL/6J mice. On day 1, animals were placed in the chambers and presented with a training session (CS-US pairing). The training consisted of a 2-minute habituation followed by a 30-second, 80 dB tone; during the last 2 seconds of the tone animals received a 1 mA foot shock. This US-CS procedure occurred once for a total of one paired presentation of tone and shock. Freezing behavior (immobility) was recorded in 5-10-sec intervals during the session. Percent baseline freezing behavior was determined in the 2-minute habituation period. On day 3, animals were placed in context B, in which tactile and odor cues differed from context A. Following a 2 minute acclimation period animals received 4×30 sec presentations of the CS (tone) in the absence of the US (footshock), with a 45 sec interval between presentations. Freezing was recorded in 5-10-sec intervals to measure baseline freezing response to the altered context, and freezing response to each tone cue presentation. […] Freezing was recorded in 5-10-sec intervals to measure baseline freezing response to the altered context, and freezing response to each tone cue presentation.

**Q.** For `CNC(C)C(=O)c1ccc2c(c1)OCO2` (centres unmarked) [methylone, 3,4-methylenedioxy-N-methylcathinone], which head-twitch behaviors (C57BL/6J mice [1]) is on record?
**A.** no effect on head-twitch behaviors at any dose tested

**Q.** And the head-twitch behaviors (C57BL/6J mice [1]; listed as Methylone)?
**A.** no hallucinogenic activity

**Q.** What about the “CAPS-5 scores decreased by” value (participants with PTSD; Day 3) of the same compound?
**A.** 8.4 points

**Q.** And the “MADRS scores decreased by” value (participants with PTSD; Day 3)?
**A.** 8.2 points

**Q.** And the “drug-related SAEs” value (participants with PTSD; Safety Population, N = 14)?
**A.** No drug-related SAEs occurred

**Q.** What about the “participants with absence of Distressing Dreams symptom” value (participants with PTSD; after treatment) of the same compound?
**A.** 77%

**Q.** What about the “participants with absence of Reduced Sleep symptom (MADRS)” value (participants with PTSD; after treatment) of the same compound?
**A.** 62%

**Q.** And the “participants with absence of Sleep Disturbances symptom” value (participants with PTSD; after treatment)?
**A.** 62%

**Q.** And the “participants much or very much improved (CGI-I)” value (participants with PTSD; end of the study)?
**A.** all participants

**Q.** What about the “fear extinction training on day 3” value (C57BL/6J mice [2]; all doses: 10, 20 or 30 mg/kg IP) of the same compound?
**A.** significantly improved fear extinction training

**Q.** And the “effect on fear extinction training and testing” value (C57BL/6J mice [2]; methylone 30 mg/kg IP 30 min before extinction training on Day 3)?
**A.** rapid, robust and long-lasting beneficial effect
